Reference: article PMC4117522, “Proteasome Inhibitors Alter Levels of Intracellular Peptides in HEK293T and SH-SY5Y Cells” (PLoS ONE, 2014)

Assays:
[1] = biological target: T1, proteasome (beta 5, chymotrypsin-like activity) in HEK293T cell extract (Homo sapiens, UniProt P20618+P28074); experiment: Proteasome activity in HEK293T cell extracts with beta 5-selective substrate Suc-Leu-Leu-Val-Tyr-AMC; assay type: biochemical
T1 construct: endogenous in cells; host or cells: HEK293T
Experimental: (§1) All enzyme assays described below were performed in the linear range of the assay, as determined from time-course studies. HEK293T cells were lysed by sonication in 50 mM TrisHCl buffer, pH 7.5, containing 40 mM KCl, 5 mM MgCl2, 0.5 mM ATP, and 1 mM DTT (Buffer 1).
To measure proteasome activity, a 1∶50 dilution of the cell extract was pre-incubated with the inhibitor and Buffer 1 for 30 min, followed by addition of 100 µM final concentration of the proteasome substrate succinyl-Leu-Leu-Val-Tyr-7-amino-4-methylcoumarin (Suc-Leu-Leu-Val-Tyr-AMC). After incubation at 37°C for 1 hour, proteasomal activity was quantified by fluorescence measurement of the substrate (380 nm excitation, 460 nm emission).
Figure 2 Inhibition of proteasome activity in HEK293T cells with various proteasome inhibitors. HEK293T cell extract was treated with increasing concentrations of the indicated compound for […] and incubation for 1 hour […]. Enzyme activity was determined by fluorescence measurement of AMC. The resulting activity is expressed as percent enzyme activity relative to the control reaction without inhibitor.

[2] = system: HEK293T cell aminopeptidase activity (Leu-AMC cleavage); experiment: Aminopeptidase assay with Leu-AMC in HEK293T cell extracts; assay type: biochemical, human; settings: HEK293T cell extract, 10 µM inhibitor
Experimental: as §1
To measure TPP2, the fluorescent substrate was Ala-Ala-Phe-AMC. Aminopeptidase (AP) assays were performed with Leu-AMC and Ala-AMC, which detect leucine aminopeptidase (LAP), puromycin-sensitive aminopeptidase (PSAP), and other enzymes. To measure the effect of aminopeptidase/proteasome inhibitors on cleavage of Ala-Ala-Phe-AMC and Leu-AMC, 1∶50 dilution of the cell extract was pre-incubated with the inhibitor and Buffer 1 for 30 min, followed by addition of 100 µM final concentration of the respective substrate. For Ala-AMC, the same dilution of the cell extract was pre-incubated with the inhibitor and 50 mM MOPS buffer, pH 7.5, containing 40 mM KCl, 5 mM MgCl2, 0.5 mM ATP, and 1 mM DTT (Buffer 2), followed by addition of 100 µM final concentration of the substrate. After incubation at 37°C for 1 hour, enzyme activity was quantified by fluorescence measurement of the substrate (380 nm excitation, 460 nm emission).
Figure 7 Effect of aminopeptidase inhibitors on Ala-AMC and Leu-AMC cleavage. HEK 293T cell extract (panels A–D) or recombinant PSAP (panels E–F) were treated with increasing concentrations of bestatin or puromycin for 30 minutes followed by the addition of substrate and incubation for 1 hour. Enzyme activity was determined by fluorescence measurement of AMC and expressed as percentage enzyme activity relative to the control without inhibitor. (A) Bestatin inhibition of HEK293T cell extract assayed with Ala-AMC. (B) Bestatin inhibition of HEK293T cell extract assayed with Leu-AMC. (C) Puromycin inhibition of HEK293T cell extract assayed with Ala-AMC. (D) Puromycin inhibition of HEK293T cell extract assayed with Leu-AMC. (E) Puromycin inhibition of purified PSAP assayed with Ala-AMC. (F) Puromycin inhibition of purified PSAP assayed with Leu-AMC. Error bars show standard error of mean (n = 4), points without error bars had error ranges smaller than the symbol size. Statistical analysis was performed using Student’s t-test: *, p≤0.05; **, p≤0.01; ***, p≤0.001; ns, no significant difference (p>0.05) versus the control.
Figure 8 Effect of proteasome inhibitors on Ala-AMC and Leu-AMC cleavage. HEK 293T cell extract or recombinant PSAP was treated with 10 µM of each of the proteasome inhibitors for 1 hour in addition to a 30 min pre-incubation without the substrate. Enzyme activity was determined by fluorescence measurement of AMC and expressed as percentage enzyme activity relative to the control without inhibitor. Panels A and B represent the effect of proteasome inhibitors on cleavage of Ala-AMC and Leu-AMC respectively, in HEK293T cell extract. […] Error bars show standard error of mean (n = 4). Statistical analysis was performed using Student’s t-test: *, p≤0.05; **, p≤0.01; ***, p≤0.001; ns, no significant difference (p>0.05) versus the control.

Compound: CN1C/C(=C/c2ccc(B(O)O)cc2)C(=O)/C(=C\c2ccc(B(O)O)cc2)C1 [AM114, reference compound]
- potency relative to clasto-Lactacystin β-lactone (fold less potent) ([1]; Suc-Leu-Leu-Val-Tyr-AMC): approximately 10 fold
- inhibition of proteasome activity at the highest concentration tested ([1]; highest concentration tested): ≤ 35%
- effect on cleavage of Leu-AMC [2]: without effect
